What all share (assay): NCI tumour cell line growth inhibition, 48 h
For assay [1], the system named is A498.
Assay [2] has as its system COLO 205.
In assay [3] the test system is HCT-116.
For assay [4], the system named is HCT-15.
Assay [5] deals with HOP-92.
The subject of assay [6] is HT-29.
Assay [7] concerns IGROV-1.
Assay [8] deals with KM12.
The test system of assay [9] is MOLT-4.
The test system of assay [10] is Malme-3M.
Assay [11] concerns NCI-H226.
Assay [12] concerns RPMI-8226.
The subject of assay [13] is SF-268.
Assay [14] concerns SK-MEL-5.
Assay [15] deals with SNB-19.
The subject of assay [16] is UACC-62.
For assay [17], the system named is SR.

From ChEMBL document CHEMBL1201862, “PubChem BioAssay data set” (2004) come the findings set out here.

Structures are written as SMILES.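 Cells were grown in 96-well plates and exposed to each compound for 48 hours at five concentrations; endpoints were interpolated linearly between bracketing concentrations, or set to the highest concentration if not reached. GI50: concentration for 50% inhibition of growth.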 The source made the active and inactive calls. Rule as the data show it: active = GI50 up to about 1.1 µM and inactive = higher.

Regarding `COc1cc(/C=N/N=C(\N)NO)c(Cl)cc1O`, the GI50 in assay [1] is 99.8 µM (inactive); in assay [2] it was 38.2 µM (inactive); in assay [3] it was 38.6 µM (inactive); in [4], 46.5 µM; in [5] it was 4.97 µM (inactive); in [6], 44.5 µM (inactive). Besides, the GI50 in [7] was > 100 µM (inactive); in assay [8], 45.3 µM (inactive); in [9], > 100 µM (inactive); in [10] it was 68.7 µM (inactive); in assay [11] it was 81.5 µM (inactive); in assay [12] it was > 100 µM (inactive). Also, the GI50 was 85.1 µM (inactive) in assay [13], 51.5 µM (inactive) in assay [14], > 100 µM (inactive) in assay [15] and 47.1 µM (inactive) in [16].
Regarding `CC(=O)O[C@]12CCCCC1C1(O)C(O)CCCCC12` (stereo partly drawn), the GI50 is > 100 µM (inactive) in [2]; > 100 µM (inactive) in assay [3]; above 100 µM in assay [4]; > 100 µM (inactive) in [6]; > 100 µM (inactive) in assay [8]; > 100 µM (inactive) in assay [9]. Moreover, the GI50 in assay [10], in [11], in assay [12], in [13], in [14] and in [15] was > 100 µM (inactive) each time. The GI50 in [17] and in assay [16] was > 100 µM (inactive) each time.
As to `C=C(COC(C)=O)CC(OC(C)=O)c1ccccc1` (stereo not drawn), the GI50 in assay [1] is > 100 µM (inactive); in assay [2] it was > 100 µM (inactive); in assay [3], > 100 µM (inactive); in assay [4] it was above 100 µM; in assay [5] it was > 100 µM (inactive); in assay [6], > 100 µM (inactive). The GI50 in assay [7] is > 100 µM (inactive); in assay [8], > 100 µM (inactive); in assay [9], 52.2 µM (inactive); in assay [11], > 100 µM (inactive); in assay [12], > 100 µM (inactive); in assay [13] it was > 100 µM (inactive). Further, the GI50 in assay [14], in assay [15] and in [16] was > 100 µM (inactive) each time.
As for `COc1cc(C2C(Cl)C(=O)N2n2cnc3ccccc3c2=O)ccc1O` (stereo not drawn), the GI50 in assay [2] is > 100 µM (inactive); in assay [3], > 100 µM (inactive); in assay [4] it was 87.3 µM; in assay [6], > 100 µM (inactive); in assay [7], 78.2 µM (inactive); in [8] it was > 100 µM (inactive). For the same molecule, the GI50 in assay [9] is > 100 µM (inactive); in assay [10], > 100 µM (inactive); in assay [11], > 100 µM (inactive); in assay [12], 60 µM (inactive); in assay [13], 76.4 µM (inactive); in assay [14] it was > 100 µM (inactive). The GI50 in assay [15] is > 100 µM (inactive); in assay [17], 83.6 µM (inactive); in assay [16], 60.8 µM (inactive).
Take `CCOC(=O)/C(=C/c1cc(OC)ccc1OC)CC(=O)O`: the GI50 in assay [1] was > 100 µM (inactive); in [2] it was > 100 µM (inactive); in assay [3], > 100 µM (inactive); in [4], above 43.7 µM; in assay [5] it was > 100 µM (inactive); in assay [6], > 94.4 µM (inactive). Moreover, the GI50 in assay [7] is > 100 µM (inactive); in assay [8], > 100 µM (inactive); in assay [9], > 25.7 µM (inactive); in assay [10], > 31.6 µM (inactive); in [13], > 100 µM (inactive); in [14], > 100 µM (inactive). Also, the GI50 in assay [15], in assay [17] and in [16] was > 100 µM (inactive) in each case.
Turning to `[O-][S+]1CSSC1`, the GI50 in assay [1] is 43.8 µM (inactive); in [2], 17.1 µM (inactive); in [3], 16.2 µM (inactive); in [5], 26.1 µM (inactive); in [6], 7.64 µM (inactive); in assay [7], 22 µM (inactive). Further, the GI50 in assay [8] was 13.9 µM (inactive); in assay [9], 5.36 µM (inactive); in assay [10] it was 36.7 µM (inactive); in [11], 26.3 µM (inactive); in assay [13], 26.2 µM (inactive); in [14] it was > 10 µM (inactive). For the same molecule, the GI50 is 41.6 µM (inactive) in assay [15], 9.79 µM (inactive) in [17] and 10.4 µM (inactive) in [16].
Consider `N#CC(=C1C=CC(=NO)C=C1)c1ccc(Cl)cc1`, for which the GI50 in assay [1] was 67.3 µM (inactive); in assay [2] it was 16.8 µM (inactive); in assay [3], 7.52 µM (inactive); in assay [4], 13.7 µM; in [5], 20 µM (inactive); in [6] it was 5.56 µM (inactive). Also, the GI50 is 17.1 µM (inactive) in assay [7]; 1.69 µM (inactive) in assay [8]; 5.74 µM (inactive) in assay [9]; 21.8 µM (inactive) in [10]; 2.6 µM (inactive) in [12]; 11.9 µM (inactive) in [13]. Besides, the GI50 in assay [14] is 7.5 µM (inactive); in [15], 42.4 µM (inactive); in [17], 4.83 µM (inactive); in assay [16] it was 3.71 µM (inactive).
Turning to `N#CC1=C(O)NC(O)=C(C#N)C1c1ccc(C2C(C#N)=C(O)NC(O)=C2C#N)cc1`, the GI50 in assay [1] is > 100 µM (inactive); in assay [2], 26.8 µM (inactive); in assay [3], > 100 µM (inactive); in [4] it was 50.8 µM; in assay [6], > 100 µM (inactive); in [7] it was > 100 µM (inactive). Moreover, the GI50 in assay [8] is > 100 µM (inactive); in assay [9], 94.6 µM (inactive); in assay [10] it was > 100 µM (inactive); in assay [11] it was > 100 µM (inactive); in assay [12], > 100 µM (inactive); in [13] it was > 100 µM (inactive). Also, the GI50 in [14], in assay [15] and in [16] was > 100 µM (inactive) throughout.
For the molecule `c1cc(N(CCn2cccn2)CCn2cccn2)cc(N(CCn2cccn2)CCn2cccn2)c1`, the GI50 in [1] is > 100 µM (inactive); in assay [2], > 100 µM (inactive); in assay [3] it was > 100 µM (inactive); in [4], above 100 µM; in assay [5], > 100 µM (inactive); in assay [8] it was > 100 µM (inactive). Moreover, the GI50 in assay [9], in assay [12], in [13], in [14], in assay [15] and in assay [17] was > 100 µM (inactive) in each case. Moreover, in assay [16], the GI50 is > 100 µM (inactive).
In the case of `CC1(C)CC(N2CCN(C3CC(C)(C)NC(C)(C)C3)CC2)CC(C)(C)N1`, the GI50 in [1] was > 100 µM (inactive); in assay [3], > 100 µM (inactive); in assay [4], above 100 µM; in assay [5], > 100 µM (inactive); in [6], > 100 µM (inactive); in assay [7], > 100 µM (inactive). Also, the GI50 in assay [8], in [9], in [12], in [13], in assay [14] and in assay [15] was > 100 µM (inactive) in each case. For the same molecule, the GI50 in [17] and in assay [16] was > 100 µM (inactive) in each case.
